Assay results reported in patent US7309702B2, “Arylpiperazines having activity at the serotonin 1A receptor” (Avera Pharmaceuticals, Inc., priority 1997, dated 2007).
Structures can show the parent of a compound that is named as a salt.

Question: For `COc1ccccc1N1CCN(CCC(C(=O)C2CCCCCC2)c2ccccc2)CC1` (centres unmarked) (as salt: hydrochloride) [Example 6, 1-(2-methoxyphenyl)-4-[3-(cycloheptanecarbonyl)-3-(phenyl)propyl]piperazine dihydrochloride], which melting point is on record?
Answer: 193 to 194 °C

Question: For `COc1ccccc1N1CCN(CCC(C(=O)C2CCCC2)c2ccccc2)CC1` (centres unmarked) (as salt: hydrochloride) [Example 7, 1-(2-methoxyphenyl)-4-[3-(cyclopentanecarbonyl)-3-(phenyl)propyl]piperazine dihydrochloride], which melting point is on record?
Answer: 210 to 212 °C

Question: With `COc1ccccc1N1CCN(CCC(C(=O)c2ccccc2)c2ccccc2)CC1.O=C(O)C(=O)O` (centres unmarked) [Example 1, 1-(2-methoxyphenyl)-4-[3-(benzoyl)-3-(phenyl)propyl]piperazine Oxalate] as the compound, how does the melting point read?
Answer: 161 to 163 °C

Question: For `COc1ccccc1N1CCN(CCC(C(=O)C2CCCCC2)c2ccccc2)CC1.O=C(O)C(=O)O` (centres unmarked) [Example 2, 1-(2-methoxyphenyl)-4-[3-(cyclohexanecarbonyl)-3-(phenyl)propyl]piperazine oxalate], which melting point is on record?
Answer: 149 to 151 °C

Question: For `O=C(C1CCCCC1)C(CCN1CCN(c2ccccn2)CC1)c1ccccc1.O=C(O)C(=O)O` (centres unmarked) [Example 3, 1-(2-pyridyl)-4-[3-(cyclohexanecarbonyl)-3-(phenyl)propyl]piperazine oxalate], which melting point is on record?
Answer: 185 to 187 °C

Question: For `COc1ccccc1N1CCN(CCC(C)(C(=O)c2ccccc2)c2ccccc2)CC1.O=C(O)C(=O)O` (centres unmarked) [Example 5, 1-(2-methoxyphenyl)-4-[3-(benzoyl)-3-(phenyl)butyl]piperazine oxalate], which melting point is on record?
Answer: 192 to 193 °C

Question: Which melting point does the source give for `COc1ccccc1N1CCN(CCC(c2ccccc2)C(O)C2CCCCC2)CC1.O=C(O)C(=O)O` (centres unmarked) [Example 8, 1-(2-methoxyphenyl)-4-[4-(cyclohexyl)-4-(hydroxy)-3-(phenyl)butyl]piperazine oxalate] here?
Answer: 100 to 102 °C

Question: Which melting point does the source give for `COc1ccccc1N1CCN(CCC(C)(C(=O)C2CCCCC2)c2ccccc2)CC1` (centres unmarked) [Example 9, 1-(2-methoxyphenyl)-4-[3-(cyclohexanecarbonyl)-3-(phenyl)butyl]piperazine] here?
Answer: 192.81 °C
